Experiments:
[1] = biological target: Flt-4 (Homo sapiens, UniProt P35916); assay: cell-free enzyme assay Flt-4; format: biochemical
[2] = biological target: PKC beta (Homo sapiens, UniProt P05771); assay: cell-free enzyme assay PKC beta; format: biochemical
[3] = biological target: T1, Flt-3 (Homo sapiens, UniProt P36888); assay: cell-free enzyme assay Flt-3; format: biochemical
T1 sequence (P36888 27-993): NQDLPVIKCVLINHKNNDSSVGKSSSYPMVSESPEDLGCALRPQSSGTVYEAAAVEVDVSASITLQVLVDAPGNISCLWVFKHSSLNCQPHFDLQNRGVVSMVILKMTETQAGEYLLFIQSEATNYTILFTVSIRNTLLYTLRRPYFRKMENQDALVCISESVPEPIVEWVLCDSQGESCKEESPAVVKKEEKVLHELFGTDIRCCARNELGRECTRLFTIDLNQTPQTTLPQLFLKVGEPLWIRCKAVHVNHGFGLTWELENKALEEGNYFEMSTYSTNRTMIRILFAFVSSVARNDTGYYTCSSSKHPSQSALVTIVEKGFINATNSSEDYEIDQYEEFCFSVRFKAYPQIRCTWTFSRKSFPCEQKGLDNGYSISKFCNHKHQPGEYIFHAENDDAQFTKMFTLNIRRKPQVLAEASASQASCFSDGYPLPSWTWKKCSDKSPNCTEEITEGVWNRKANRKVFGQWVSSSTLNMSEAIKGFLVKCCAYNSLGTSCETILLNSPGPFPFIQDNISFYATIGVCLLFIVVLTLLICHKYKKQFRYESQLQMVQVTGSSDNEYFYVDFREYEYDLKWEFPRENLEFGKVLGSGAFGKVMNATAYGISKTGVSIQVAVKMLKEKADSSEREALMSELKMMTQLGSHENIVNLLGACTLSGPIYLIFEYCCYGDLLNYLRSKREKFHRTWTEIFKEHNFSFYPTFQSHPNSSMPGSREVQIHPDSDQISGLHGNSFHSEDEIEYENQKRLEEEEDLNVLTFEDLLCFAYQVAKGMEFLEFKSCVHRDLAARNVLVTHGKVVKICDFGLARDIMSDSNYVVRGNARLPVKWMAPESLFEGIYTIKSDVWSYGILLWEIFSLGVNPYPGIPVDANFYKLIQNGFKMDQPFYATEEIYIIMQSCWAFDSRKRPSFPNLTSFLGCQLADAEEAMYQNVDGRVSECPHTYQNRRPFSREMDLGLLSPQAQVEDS

[4] = biological target: PKC alpha (Homo sapiens, UniProt P17252); assay: cell-free enzyme assay PKC alpha; format: biochemical
[5] = biological target: T2, PKC epsilon (Homo sapiens, UniProt Q02156); assay: cell-free enzyme assay PKC epsilon; format: biochemical
T2 sequence (Q02156 1-737): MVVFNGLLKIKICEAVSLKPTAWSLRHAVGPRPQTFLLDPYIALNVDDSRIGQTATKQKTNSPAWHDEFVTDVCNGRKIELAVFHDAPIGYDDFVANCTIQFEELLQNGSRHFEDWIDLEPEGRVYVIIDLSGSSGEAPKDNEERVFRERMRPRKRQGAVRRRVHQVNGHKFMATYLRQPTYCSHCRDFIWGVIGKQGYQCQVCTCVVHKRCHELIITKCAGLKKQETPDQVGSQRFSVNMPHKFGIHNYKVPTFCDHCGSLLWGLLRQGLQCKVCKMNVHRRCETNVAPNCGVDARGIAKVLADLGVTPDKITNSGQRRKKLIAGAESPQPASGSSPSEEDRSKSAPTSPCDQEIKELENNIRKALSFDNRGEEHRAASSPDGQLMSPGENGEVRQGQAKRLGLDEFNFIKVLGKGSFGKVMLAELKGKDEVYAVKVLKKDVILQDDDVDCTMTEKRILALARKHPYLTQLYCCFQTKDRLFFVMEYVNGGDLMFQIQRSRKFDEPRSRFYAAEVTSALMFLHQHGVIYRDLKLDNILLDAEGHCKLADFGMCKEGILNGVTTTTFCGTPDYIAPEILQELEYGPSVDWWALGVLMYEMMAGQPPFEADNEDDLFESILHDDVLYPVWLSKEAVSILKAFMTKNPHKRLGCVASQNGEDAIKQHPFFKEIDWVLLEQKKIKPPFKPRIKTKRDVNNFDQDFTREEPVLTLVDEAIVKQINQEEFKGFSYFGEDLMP

[6] = biological target: KDR (Homo sapiens, UniProt P35968); assay: cell-free enzyme assay KDR; format: biochemical
[7] = tested on: HEK/APPswe cells; assay: MTS assay (cytotoxicity); format: cell-based; conditions: at concentrations below 1 microM
Experimental: To determine cytotoxicity, cells are tested by the MTS colorimetric kit performed essentially according to the manufacturer's specifications (Promega, #G5430X). After collecting the conditioned medium for the sandwich ELISA, the rest of the conditioned medium is removed completely and replaced with 100 μl/well culture medium containing one fifth of MTS solution prepared as recommended in the kit. After 3 hours incubation at 37° C., absorbance is read at an OD of 490 nm with a reference wavelength set to 630 nm. Values are given as % metabolic rate (n=6). The 0% value is calculated from wells which had no cells, 100% from wells with an untreated cell layer

[8] = biological target: PKC theta (Homo sapiens, UniProt Q04759); assay: cell-free enzyme assay PKC theta; format: biochemical
[9] = tested on: Aβ secretion in HEK/APPswe cells; assay: Aβ secretion in HEK/APPswe cell culture medium (sandwich ELISA); format: cell-based; conditions: HEK/APPswe cell cultures, 24 hours after compound addition
Experimental: HEK/APPswe cells are plated in microtiter plates precoated with 10 μg/ml poly-D-lysine at 12′000 cells/well in 100 μl/well DMEM medium supplemented with 10% FCS, 0.25 mg/ml G418 sulfate, 1% penicillin streptomycin. The following day, supernatant is replaced with 90 μl/well of fresh medium and 10 μl/well of compound diluted in culture medium are added. Two types of control wells are used: cell culture medium without cells plus 10 μl/well of all compound dilutions (background signals) and cell culture medium from untreated cells (positive control). 24 hours later after compound addition, conditioned medium is collected and Aβ levels determined by a specific sandwich ELISA.
For the sandwich ELISA, the maxisorp microtiterplates are coated overnight at 4° C. with 100 μl/well of the monoclonal antibody 25H 10 diluted 1:1000 in PB for Aβ40 detection or monoclonal antibody B10E7 diluted 1:2750 for detection of Aβ42. […] After 1 hour incubation at room temperature wells are washed as described above and alkaline phosphatase activity is determined by adding 100 μl/well of diethanolamine buffer, pH 9.8 (100 mM diethanolamine, 1 mM MgCl2, pH adjusted to 9.8 with 2 M HCl) containing the chemiluminescent CSPD substrate (25 mM stock solution diluted 1:416) and the enhancer Emerald II (diluted 1:10). […] Samples are measured in triplicate. […]

[10] = biological target: Flt-2 (Homo sapiens, UniProt P11362); assay: cell-free enzyme assay Flt-2; format: biochemical
[11] = biological target: CDK-1 (Homo sapiens, UniProt P06493); assay: cell-free enzyme assay CDK-1; format: biochemical
[12] = biological target: PKC gamma (Homo sapiens, UniProt P05129); assay: cell-free enzyme assay PKC gamma; format: biochemical
[13] = biological target: Flt-1 (Homo sapiens, UniProt P17948); assay: cell-free enzyme assay Flt-1; format: biochemical
Flt-1, sequence (P17948 27-1338, species assumed): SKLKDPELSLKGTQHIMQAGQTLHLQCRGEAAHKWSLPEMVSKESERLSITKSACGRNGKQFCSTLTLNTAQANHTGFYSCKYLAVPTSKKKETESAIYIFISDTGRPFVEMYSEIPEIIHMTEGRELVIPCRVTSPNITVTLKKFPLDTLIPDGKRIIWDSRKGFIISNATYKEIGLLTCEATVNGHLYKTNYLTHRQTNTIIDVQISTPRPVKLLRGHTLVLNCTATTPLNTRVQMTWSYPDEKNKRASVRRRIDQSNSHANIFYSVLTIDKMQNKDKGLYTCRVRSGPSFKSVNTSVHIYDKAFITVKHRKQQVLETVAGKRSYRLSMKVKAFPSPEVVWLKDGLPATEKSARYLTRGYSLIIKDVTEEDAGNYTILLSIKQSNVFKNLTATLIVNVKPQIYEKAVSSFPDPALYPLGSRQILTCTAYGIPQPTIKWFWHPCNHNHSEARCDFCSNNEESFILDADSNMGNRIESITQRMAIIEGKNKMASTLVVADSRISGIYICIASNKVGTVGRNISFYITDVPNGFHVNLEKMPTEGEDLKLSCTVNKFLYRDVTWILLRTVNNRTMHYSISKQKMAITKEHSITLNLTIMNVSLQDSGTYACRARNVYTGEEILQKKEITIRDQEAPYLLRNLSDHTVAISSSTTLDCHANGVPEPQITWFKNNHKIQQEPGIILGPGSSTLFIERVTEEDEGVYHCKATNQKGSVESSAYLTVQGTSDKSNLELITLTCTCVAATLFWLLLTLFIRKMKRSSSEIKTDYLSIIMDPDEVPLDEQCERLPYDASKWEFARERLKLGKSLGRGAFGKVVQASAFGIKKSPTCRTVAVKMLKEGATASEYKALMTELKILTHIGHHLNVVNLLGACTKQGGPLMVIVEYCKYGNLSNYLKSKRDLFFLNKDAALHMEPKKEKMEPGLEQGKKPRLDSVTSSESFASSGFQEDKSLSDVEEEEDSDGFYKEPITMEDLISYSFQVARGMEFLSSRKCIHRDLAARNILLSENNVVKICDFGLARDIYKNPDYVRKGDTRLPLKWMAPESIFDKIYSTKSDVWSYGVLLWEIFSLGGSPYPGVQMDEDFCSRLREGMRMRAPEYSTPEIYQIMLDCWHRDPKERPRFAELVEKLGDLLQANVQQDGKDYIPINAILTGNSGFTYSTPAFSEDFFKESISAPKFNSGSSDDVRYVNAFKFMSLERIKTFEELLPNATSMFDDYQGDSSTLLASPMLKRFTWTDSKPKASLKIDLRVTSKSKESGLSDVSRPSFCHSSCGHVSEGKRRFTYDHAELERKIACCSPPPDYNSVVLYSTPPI

KDR, sequence (P35968 20-1356, species assumed): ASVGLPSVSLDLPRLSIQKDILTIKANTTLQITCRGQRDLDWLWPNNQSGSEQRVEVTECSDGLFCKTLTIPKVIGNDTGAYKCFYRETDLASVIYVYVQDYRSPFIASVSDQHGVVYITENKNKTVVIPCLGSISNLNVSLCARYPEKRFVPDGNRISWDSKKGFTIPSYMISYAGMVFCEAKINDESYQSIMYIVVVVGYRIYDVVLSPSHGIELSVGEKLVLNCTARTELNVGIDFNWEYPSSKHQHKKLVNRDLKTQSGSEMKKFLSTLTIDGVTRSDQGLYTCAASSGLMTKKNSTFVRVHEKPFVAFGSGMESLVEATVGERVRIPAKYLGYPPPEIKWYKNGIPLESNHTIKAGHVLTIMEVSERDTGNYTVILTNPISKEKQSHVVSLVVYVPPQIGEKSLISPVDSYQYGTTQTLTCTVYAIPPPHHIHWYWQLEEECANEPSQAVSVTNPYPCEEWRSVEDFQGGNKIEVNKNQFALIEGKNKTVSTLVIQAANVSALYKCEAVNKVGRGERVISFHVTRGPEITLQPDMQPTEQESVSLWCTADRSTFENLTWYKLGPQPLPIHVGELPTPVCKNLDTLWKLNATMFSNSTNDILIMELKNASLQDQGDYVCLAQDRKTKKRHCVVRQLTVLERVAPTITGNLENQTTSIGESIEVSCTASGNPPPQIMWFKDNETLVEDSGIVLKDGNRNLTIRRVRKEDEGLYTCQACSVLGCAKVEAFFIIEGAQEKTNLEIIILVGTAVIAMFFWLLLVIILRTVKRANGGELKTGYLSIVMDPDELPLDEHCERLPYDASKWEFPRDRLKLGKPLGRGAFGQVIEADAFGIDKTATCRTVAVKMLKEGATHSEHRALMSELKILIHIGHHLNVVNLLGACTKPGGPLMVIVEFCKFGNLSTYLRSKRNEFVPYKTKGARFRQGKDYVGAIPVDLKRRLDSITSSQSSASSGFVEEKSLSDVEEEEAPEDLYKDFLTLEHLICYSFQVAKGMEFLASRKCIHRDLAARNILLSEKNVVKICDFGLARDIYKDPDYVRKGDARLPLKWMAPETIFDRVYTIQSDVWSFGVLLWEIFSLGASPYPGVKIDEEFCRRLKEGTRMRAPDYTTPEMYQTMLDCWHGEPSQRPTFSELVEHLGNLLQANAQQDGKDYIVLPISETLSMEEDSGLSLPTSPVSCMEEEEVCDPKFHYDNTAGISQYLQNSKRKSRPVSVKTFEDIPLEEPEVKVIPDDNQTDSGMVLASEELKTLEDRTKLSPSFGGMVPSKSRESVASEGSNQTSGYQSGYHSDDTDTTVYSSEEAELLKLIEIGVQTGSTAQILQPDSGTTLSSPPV
PKC theta, sequence (Q04759 whole entry): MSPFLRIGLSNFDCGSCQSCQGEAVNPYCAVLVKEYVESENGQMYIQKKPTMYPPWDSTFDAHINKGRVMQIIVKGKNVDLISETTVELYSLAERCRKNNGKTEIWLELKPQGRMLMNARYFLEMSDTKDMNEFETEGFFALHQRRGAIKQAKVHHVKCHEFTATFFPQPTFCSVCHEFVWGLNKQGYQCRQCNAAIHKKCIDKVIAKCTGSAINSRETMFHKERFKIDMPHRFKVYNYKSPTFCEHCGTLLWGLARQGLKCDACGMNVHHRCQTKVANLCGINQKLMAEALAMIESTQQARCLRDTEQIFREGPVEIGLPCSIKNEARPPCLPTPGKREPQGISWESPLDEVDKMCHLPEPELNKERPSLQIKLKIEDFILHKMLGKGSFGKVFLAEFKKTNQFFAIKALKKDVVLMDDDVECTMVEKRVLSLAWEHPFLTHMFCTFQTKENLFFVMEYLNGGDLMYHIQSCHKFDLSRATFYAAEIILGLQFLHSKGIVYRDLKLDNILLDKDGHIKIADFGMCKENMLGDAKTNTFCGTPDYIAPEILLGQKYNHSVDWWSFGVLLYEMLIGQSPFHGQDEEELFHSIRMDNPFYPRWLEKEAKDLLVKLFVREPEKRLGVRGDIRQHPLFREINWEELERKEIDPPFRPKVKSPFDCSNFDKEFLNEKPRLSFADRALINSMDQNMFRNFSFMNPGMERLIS
PKC beta, sequence (P05771 whole entry, species assumed): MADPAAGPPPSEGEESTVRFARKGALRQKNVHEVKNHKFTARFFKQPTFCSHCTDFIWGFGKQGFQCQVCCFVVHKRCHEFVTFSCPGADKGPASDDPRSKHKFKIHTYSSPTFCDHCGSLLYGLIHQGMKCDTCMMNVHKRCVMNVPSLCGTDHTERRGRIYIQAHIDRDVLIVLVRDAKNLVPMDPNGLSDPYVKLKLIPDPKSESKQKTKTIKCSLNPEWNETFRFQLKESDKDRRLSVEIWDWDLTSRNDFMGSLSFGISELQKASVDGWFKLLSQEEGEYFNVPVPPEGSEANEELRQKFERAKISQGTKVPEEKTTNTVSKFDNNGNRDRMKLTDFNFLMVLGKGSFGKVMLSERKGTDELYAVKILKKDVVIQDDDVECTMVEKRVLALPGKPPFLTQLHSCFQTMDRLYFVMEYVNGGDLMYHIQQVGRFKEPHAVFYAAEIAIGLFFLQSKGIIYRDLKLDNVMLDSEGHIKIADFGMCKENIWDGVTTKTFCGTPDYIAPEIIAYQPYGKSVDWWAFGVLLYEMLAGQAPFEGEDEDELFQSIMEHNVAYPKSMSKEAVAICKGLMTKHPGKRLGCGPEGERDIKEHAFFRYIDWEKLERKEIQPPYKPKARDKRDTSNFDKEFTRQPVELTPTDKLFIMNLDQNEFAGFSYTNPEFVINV

CN1CCN(c2cc(C3=C(c4c[nH]c5ccccc45)C(=O)NC3=O)c(Cl)c(C(F)(F)F)c2)CC1 [Example 2, 3-[2-Chloro-5-(4-methyl-piperazin-1-yl)-3-trifluoromethyl-phenyl]-4-(1H-indol-3-yl)-pyrrole-2,5-dione]
activity in cell-free enzyme assay, Flt-4 [1]: <10 µM
activity in cell-free enzyme assay, PKC beta [2]: 30 nM
activity in cell-free enzyme assay, Flt-3 [3]: <10 µM
activity in cell-free enzyme assay, PKC alpha [4]: 21 nM
activity in cell-free enzyme assay, PKC epsilon [5]: 514 nM
activity in cell-free enzyme assay, KDR [6]: <10 µM
effect on cellular viability [7]: without having any effect on cellular viability
activity in cell-free enzyme assay, PKC theta [8]: 186 nM
concentration giving a clear reduction of Aβ secretion in the medium [9]: below 1 microM
activity in cell-free enzyme assay, Flt-2 [10]: <10 µM
activity in cell-free enzyme assay, CDK-1 [11]: <10 µM
activity in cell-free enzyme assay, PKC gamma [12]: <500 nM
activity in cell-free enzyme assay, Flt-1 [13]: <10 µM
